This is an account of results in PMC3828642 (AoB Plants, 2013).

Common to all, as to type: biochemical
The target of experiment [1] is T1, 1-aminocyclopropane-1-carboxylic acid oxidase (ACCO1) (Malus domestica, UniProt Q00985). Put plainly: steady-state kinetics, competitive activation (Ka), double reciprocal plot. More on the design: purified recombinant ACCO.
Experiment [2] deals with T1, 1-aminocyclopropane-1-carboxylic acid oxidase (ACCO1). Put plainly: steady-state kinetics, ethylene assay by GC. Set-up: purified ACCO fusion protein.
Experiment [3] shares this target. As to the kind of experiment: steady-state kinetics (data not shown).
For experiment [4] the target is unchanged. As to the kind of experiment: steady-state kinetics, ethylene assay by GC, double reciprocal plot; UV/Vis spectrum. Set-up: His-Tag fusion protein expressed in E. coli.

T1 sequence (Q00985 whole entry, the tested form may be a part): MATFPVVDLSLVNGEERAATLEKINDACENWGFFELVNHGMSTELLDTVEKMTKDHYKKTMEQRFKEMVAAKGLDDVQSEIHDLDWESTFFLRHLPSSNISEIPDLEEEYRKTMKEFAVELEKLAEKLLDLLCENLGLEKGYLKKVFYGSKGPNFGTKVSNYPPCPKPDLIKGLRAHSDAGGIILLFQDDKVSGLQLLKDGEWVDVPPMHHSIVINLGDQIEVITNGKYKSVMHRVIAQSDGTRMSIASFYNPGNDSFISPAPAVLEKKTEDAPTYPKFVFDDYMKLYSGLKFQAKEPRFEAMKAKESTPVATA

With `O=c1[nH]c(=O)c2nccnc2[nH]1` [2,4-pteridinediol], the “steady-state kinetics, competitive activation (Ka), double reciprocal plot” value in experiment [1] came out at 2.2 mM.

In the case of `O=C(O)[C@@H](O)[C@H]1OC(=O)[C@H](O)[C@H]1O` [D-Saccharic acid 1,4-lactone], in experiment [2], the inhibition constant (Ki) (in general, the dissociation constant of the complex between target and ligand, obtained from inhibition or displacement) was found to be 300 µM.

Take `O=C(O)CC(=O)O` [Malonic acid]: affinity in experiment [3] was put at a Ki of 70 µM. This lies in the double-digit micromolar range.

The molecule `O=C(O)CC(=O)C(=O)O` [Oxaloacetic acid] showed an inhibition constant Ki in experiment [3] of 930 µM.

On to `Cc1ncc(COP(=O)(O)O)c(C=O)c1O` [Pyridoxal-5′-phosphate], for which the Ki in experiment [4] is 200 µM.
